Experiment [1] deals with T1, panel of 442 kinases (Homo sapiens, UniProt Q9BYT3).
T1 construct: purchased KINOMEscan
The format is binding. Particulars: kinase STK33; compound concentration 10 µM. From the text:
(§1) We assessed the selectivity of members of this scaffold using the KINOMEscan methodology across a near comprehensive panel of 442 kinases [[18,27]].

In experiment [2] the target is T2, panel of 442 kinases (Homo sapiens, UniProt Q12851).
T2 construct: purchased KINOMEscan
T2 sequence (Q12851 1-820): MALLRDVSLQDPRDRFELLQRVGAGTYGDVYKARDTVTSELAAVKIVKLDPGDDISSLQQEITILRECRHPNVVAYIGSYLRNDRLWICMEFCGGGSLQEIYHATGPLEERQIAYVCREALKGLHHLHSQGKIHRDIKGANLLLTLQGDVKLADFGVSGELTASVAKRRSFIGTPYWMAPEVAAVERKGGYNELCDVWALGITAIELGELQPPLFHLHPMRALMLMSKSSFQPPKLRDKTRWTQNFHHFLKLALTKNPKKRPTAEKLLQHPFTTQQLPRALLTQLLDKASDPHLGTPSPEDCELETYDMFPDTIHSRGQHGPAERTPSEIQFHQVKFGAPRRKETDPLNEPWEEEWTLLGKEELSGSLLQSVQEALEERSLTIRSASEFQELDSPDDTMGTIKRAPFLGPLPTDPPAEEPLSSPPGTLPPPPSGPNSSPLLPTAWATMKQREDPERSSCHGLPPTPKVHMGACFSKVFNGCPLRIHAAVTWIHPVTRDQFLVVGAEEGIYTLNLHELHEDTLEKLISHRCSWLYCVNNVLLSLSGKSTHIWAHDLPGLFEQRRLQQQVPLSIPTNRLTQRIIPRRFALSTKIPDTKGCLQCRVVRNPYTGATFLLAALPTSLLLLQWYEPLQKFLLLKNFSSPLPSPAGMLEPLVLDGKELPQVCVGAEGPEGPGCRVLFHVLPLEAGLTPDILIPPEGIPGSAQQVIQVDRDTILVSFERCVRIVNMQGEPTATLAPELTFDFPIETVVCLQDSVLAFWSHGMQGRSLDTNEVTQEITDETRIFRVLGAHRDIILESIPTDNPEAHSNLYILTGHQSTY
The format is binding. Particulars: Compound Concentration 10 µM.
Description: as §1

The structures appear in SMILES notation.

Here are results for three compounds from publication PMC3914206.

T1 sequence (Q9BYT3 whole entry): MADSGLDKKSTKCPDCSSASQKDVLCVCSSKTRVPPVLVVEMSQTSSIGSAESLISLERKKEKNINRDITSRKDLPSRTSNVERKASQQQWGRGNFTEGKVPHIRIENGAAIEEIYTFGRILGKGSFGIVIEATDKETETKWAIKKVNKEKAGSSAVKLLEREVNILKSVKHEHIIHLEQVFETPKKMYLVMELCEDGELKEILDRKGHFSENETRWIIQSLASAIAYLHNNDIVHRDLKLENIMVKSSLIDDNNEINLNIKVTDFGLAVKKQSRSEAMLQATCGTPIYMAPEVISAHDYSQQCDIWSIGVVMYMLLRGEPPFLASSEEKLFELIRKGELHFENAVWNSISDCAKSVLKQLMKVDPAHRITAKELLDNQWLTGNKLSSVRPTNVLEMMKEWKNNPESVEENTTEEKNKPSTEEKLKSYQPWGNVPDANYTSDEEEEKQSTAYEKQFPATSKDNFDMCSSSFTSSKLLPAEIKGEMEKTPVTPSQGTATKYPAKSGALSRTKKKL

Consider `COc1cc(C(=O)N2CCC(N3CCN(C)CC3)CC2)ccc1Nc1ncc2c(n1)N(C)c1ccccc1C(=O)N2C` [15 (LRRK2-IN-1)], for which the “% Ctrl, STK33” value in experiment [1] is given as 10 % Ctrl. In addition, the “KINOMEscan: MAP4K2” value in experiment [2] is given as 100.

For the compound `COc1cc(C(=O)N2CCC(N3CCN(C)CC3)CC2)ccc1Nc1ncc2c(n1)N(C1CCCC1)c1ccccc1C(=O)N2C` [Compound 25, 11-cyclopentyl-2-((2-methoxy-4-(4-(4-methylpiperazin-1-yl)piperidine-1-carbonyl)phenyl)amino)-5-methyl-5H-benzo[e]pyrimido[5,4-b][1,4]diazepin-6(11H)-one], the “% Ctrl, STK33” value in experiment [1] stood at 81 % Ctrl. Moreover, in experiment [2], the “KINOMEscan: MAP4K2” value was 100.

Consider `CCOc1cc(C(=O)N2CCC(N3CCN(C)CC3)CC2)ccc1Nc1ncc2c(n1)N(C1CCCC1)c1ccccc1C(=O)N2C` [Compound 26], for which the “% Ctrl, STK33” value in experiment [1] is on record as 100 % Ctrl. Further, the “KINOMEscan: MAP4K2” value in experiment [2] is 92.
